≈ marks a conversion by molar mass, not a printed value.
Tests used:
TNF-α = experiment: P. acnes-induced TNF-α protein on human PBMCs (ELISA); type: cell-based; conditions: PBMCs + live P. acnes 1:1, test material 30 PM, 24 hours
Description: (§1) Cryopreserved human Peripheral Blood Mononuclear cells (PBMCs) from healthy adult donors were obtained from Zen Bio, Inc (Cat No. SER-PBMC-F). Cells were cultured in 12-well plates with lymphocyte media (Cat No. LYMPH-1) and incubated with test materials ([…]) and live P. acnes (ATCC® 6919TM) at 1:1 PBMC: P. acnes bacteria ratio for 24 hours at 37° C. and 5% CO2. After incubation, cell media supernatants were harvested and used to measure pro-inflammatory cytokine levels (IL-8, TNF-α, IL-1b, IL-17) using ELISA kits (BD Biosciences® #557966, #555212, #555244; R&D Systems® #DY317). Total RNA was extracted from cells using the RNAqueous® kit (Ambion®; Cat No. 1912) and cDNA was obtained using the High Capacity RNA-to-cDNA kit (Applied Biosystems®; Cat No. 4387406). Quantitative PCR (qPCR) was performed using the TaqMan® Fast Advanced Master Mix (Applied Biosystems®; Cat No. 4444556) and specific TaqMan®-probes human gene primers CXCL8 (IL-8), IL1B (IL-1b), TNF (TNF-α), IL17A (IL-17A) and GAPDH to calculate the relative gene fold expression change per treatment. Gene expression analysis was performed using the comparative Ct method (also known as the 2-[delta][delta]Ct) approach by comparing the Ct values of P. acnes-only treated cells with the untreated samples and normalized to GAPDH gene expression as endogenous housekeeping gene.

[1] = tested on: P. acnes (ATCC 6919) biofilms; experiment: P. acnes biofilm eradication (MBEC), crystal violet; type: cell-based, Propionibacterium acnes; conditions: 24 hours, ≥80% eradication vs vehicle
Description: P. acnes (ATCC® 6919™) was cultured as described above. Bacteria biofilms were established by seeding P. acnes cultures in 96-well plates and incubating for 24 hours without agitation. Later, biofilms were incubated with test materials for 24 hours. Remaining biofilms were washed and stained with crystal violet. […] The absorbance was measured at 595 nm in a microplate reader. […] Results from disk diffusion susceptibility testing (Kirby-Bauer Method) after 72 hours incubation were also obtained.

IL-17 = experiment: P. acnes-induced IL-17 protein on human PBMCs (ELISA); type: cell-based; conditions: PBMC, PBMCs + live P. acnes 1:1, test material 30 PM, 24 hours
Description: as §1

DEFB4B (hBD2) = experiment: NHEK antimicrobial peptide gene expression, hBD2; type: cell-based, human; conditions: 10 μM, 24 hours, qPCR, normalized to GAPDH
Description: (§2) Normal human epidermal keratinocytes (NHEKs) from neonatal donors were obtained from Thermo-Fisher (Cat No. C-001-5C). Cells were cultured in 6-well plates for 24 hours before treatments with EpiLife media (Cat No. MEPI500CA) supplemented with keratinocytes growth supplement (Cat No. 50015). On Day 2, media was removed and incubated with test materials (10 μM) for 24 hours at 37° C. and 5% CO2. On Day 3, total RNA was extracted from cells using the RNAqueous® kit (Ambion®; Cat No. 1912) and cDNA was obtained using the High Capacity RNA-to-cDNA kit (Applied Biosystems®; Cat No. 4387406). Quantitative PCR (qPCR) was performed using the TaqMan® Fast Advanced Master Mix (Applied Biosystems®; Cat No. 4444556) and specific TaqMan®-probes human gene primers DEFB4B (hBD2), DEFB103 (hBD3), HCAP18 and GAPDH to calculate the relative gene fold expression change per treatment. Gene expression analysis was performed using the comparative Ct method (also known as the 2-[delta][delta]Ct) approach by comparing the Ct values of the treated samples with the untreated samples and normalized to GAPDH gene expression as endogenous housekeeping gene. Results were represented as fold-expression/untreated cells.

DEFB103 (hBD3) = experiment: NHEK antimicrobial peptide gene expression, hBD3; type: cell-based, human; conditions: 10 μM, 24 hours, qPCR, normalized to GAPDH
Description: as §2

P. acnes (ATCC 6919) [2] = experiment: Minimal inhibitory concentration (MIC) against P. acnes; type: cell-based, Propionibacterium acnes; conditions: Cutibacterium acnes, ATCC6919, 72 h, P. acnes ATCC 6919, 10^6 CFU/mL, read-out: MIC
Description: To determine minimal inhibitory concentration (MIC), reagents were dissolved in vehicle (5% v/v) and then added to bacteria suspension. P. acnes (ATCC® 6919TM) at 10^6 CFU/mL was incubated with test materials at the concentrations of two-fold serial dilution (0.25-500 μg/mL) and incubated for 72 hours (P. acnes).

IL-1b = experiment: P. acnes-induced IL-1b protein on human PBMCs (ELISA); type: cell-based; conditions: PBMC, PBMCs + live P. acnes 1:1, test material 30 PM, 24 hours
Description: as §1

IL-8 [3] = experiment: P. acnes-induced IL-8 protein on human PBMCs (ELISA); type: cell-based; conditions: PBMCs + live P. acnes 1:1, test material 30 PM, 24 hours
Description: as §1

HCAP18 = experiment: NHEK antimicrobial peptide gene expression, hCAP18; type: cell-based, human; conditions: 10 μM, 24 hours, qPCR, normalized to GAPDH
Description: as §2

P. acnes (ATCC 6919) [4] = experiment: Minimal bactericidal concentration (MBC) against P. acnes; type: cell-based, Propionibacterium acnes; conditions: Cutibacterium acnes, ATCC6919; P. acnes 10^7 CFU/mL, in PBS, anaerobic conditions
IL-8 [5] = experiment: Peptidoglycan (PGN)-induced IL-8 on NHEKs; type: cell-based, human; conditions: Homo sapiens; NHEK, PGN 10 μg/mL, 24 hours, ELISA; read-out: PGN-NHEK 1L-8 Protein IC50
Description: (§3) Normal human epidermal keratinocytes (NHEKs) from neonatal donors were obtained from Thermo-Fisher (Cat No. C-001-5C). Cells were cultured in 96-well plates for 24 hours with EpiLife media (Cat No. MEPI500CA) supplemented with keratinocytes growth supplement (Cat No. S0015). On Day 2, media was removed and replaced with supplement-depleted medium for 24 hours. On Day 3, media was removed and cells were pre-treated with test materials (≤1 μM) for 2 hours and later co-treated with test materials and PGN (Sigma Aldrich, Cat No. 77140) at 10 μg/mL and incubated for 24 hours at 37° C. and 5% CO2. PGN is a TLR-2 agonist. After incubation, cell media supernatants were harvested and used to measure pro-inflammatory cytokine levels (IL-8) using ELISA kit (BD Biosciences® #555244). Results were represented as percent of inhibition relative to untreated and PGN-only treated cells. IC50 values were determined by non-linear regression analysis using the four-parameter logistic equation.

[6] = tested on: subjects with mild to moderate acne; experiment: 8-week clinical study in subjects with mild to moderate acne; type: in vivo; parameters: scale not given here; conditions: E 1% w/w, BPO 3% w/w, human
Excerpt: Subjects used the assigned product at home for 8 weeks. Subjects returned post baseline at week 2, 4 and 8. At each visit subjects underwent expert clinical grading and test site photography. […] The severity of acne signs and symptoms on the faces of >18 yo subjects were clinically assessed by IGA scale during an 8-week Study period. In addition, UV light mode was utilized to observe porphyrins fluorescence (orange-red dots).

IL-31 = experiment: Anti-CD3/CD28+IL-4-induced IL-31 on PBMCs; type: cell-based; conditions: Homo sapiens, PBMC, anti-CD3/CD28 beads + 50 ng/mL IL-4, 48 hours, ELISA, read-out: TCR/IL-4-PBMCs IL-31 IC50
Description: Cryopreserved human Peripheral Blood Mononuclear cells (PBMCs) from healthy adult donors were obtained from Zen Bio, Inc (Cat No. SER-PBMC-F). Cells were cultured in 96-well plates with lymphocyte media (Cat No. LYMPH-1) and were pre-treated with test materials (≤100 μM) for 2 hours and later co-treated with test materials and anti-CD3/CD28 beads (Thermo-Fisher; Cat No. 11131D) and 50 ng/mL recombinant human IL-4 (R&D Systems® #204-IL) for 48 hours at 37° C. and 5% CO2. After incubation, cell media supernatants were harvested and used to measure cytokine levels (IL-22, IL-31) using ELISA kits (R&D Systems® #DY782, #DY2824). Results were represented as percent of inhibition relative to untreated and anti-CD3/CD28+IL-4 only treated cells. IC50 values were determined by non-linear regression analysis using the four-parameter logistic equation.

IL-8 [7] = experiment: TPA-induced IL-8 on NHEKs; type: cell-based; conditions: Homo sapiens; NHEK, TPA 5 ng/mL, 24 hours, ELISA
Description: as §3, with “TPA” for “PGN”, “P8139)” for “77140)”, “5 ng/mL” for “10 μg/mL”, “CO2.” for “CO2. PGN is a TLR-2 agonist.”, “TPA-only” for “PGN-only”

IL-13 = experiment: Concanavalin-A-induced IL-13 on PBMCs; type: cell-based; conditions: Homo sapiens, PBMC, ConA, 24 hours, ELISA
Swiss Webster (ICR) mice = experiment: TPA-induced skin irritation in vivo model (mouse ear); conditions: topical @ 1% w/v, 24 hour
Description: Outbred male Swiss Webster (ICR) mice were purchased from Hilltop Lab Animals (Scottdale, PA) and were used between 10 and 12 weeks of age and we followed a similar protocol previously described (Gordon et al., 2008). Mice received 1.2 μg/20 μl TPA dissolved in acetone (10 μl applied both to the dorsal and ventral surfaces of the mouse ear using a solvent pipette) to each ear to induce acute irritation (6 per group). Test Materials were co-treated with TPA or applied 5 minutes after TPA dose, at various concentrations (0.6 to 800 μg/20 μl) in ethanol. After 24 hour treatment, edema was measured by ear thickness.

Balb/C mice = experiment: Oxazolone-induced delayed-type hypersensitivity (DTH) in vivo model; conditions: Mus musculus, topical @1%, 24 hours, read-out: Edema % inhibition
Description: Inbred male Balb/C mice were purchased from Hilltop Lab Animals (Scottdale, PA) and were used between 8 and 10 weeks of age. Mice backs were shaved and 100 μl of 3% v/v Oxazolone (Sigma Aldrich, Cat No. E0753) in acetone/olive oil (4:1) was applied to dorsal skin for sensitization. On Day 7, ears were challenged with 0.5% v/v Oxazolone and 30 minutes after challenge, test materials at 3% w/v were applied to ears (10 μl applied both to the dorsal and ventral surfaces of the mouse ear using a solvent pipette) and 24 hours later, skin thickness (edema) was measured. A 6-mm punch biopsy was obtained from each ear, snap frozen in liquid nitrogen. Ear skin biopsy punches were pulverized using FastPrep®-24 Biopulverizer (MP Biomedical, CatNo. 116004500) and Lysing Matrix A tubes (CatNo. 16910050). Protein extracts were obtained using 500 μL/tissue of cold T-PER buffer (ThermoFisher, CatNo. 78510) with Protease inhibitors (Sigma-Aldich, CatNo. 58820-20TAB). Soluble protein fractions were used to measure cytokine levels (IL-4) using ELISA kit (BD Biosciences® #555232). Results were represented as percent of inhibition relative to unsensitized and sensitized-only treated animals. Vehicle for presently disclosed compounds was 60:40 H2O:EtOH and 1:1 Acetone:EtOH for AN2718. (n=5-15 animals per treatment group).
Compound C was further analyzed at various dosages against 0.4 mg/ear of […] by the above protocol, data representing the average±S.E. of cumulative data from three independent experiments (n=12-15 mice per group) is shown below: […]

For O=C(O)CCCCCCCC(=O)O [Azelaic Acid, reference compound], the TNFa-Protein % inhibition (TNF-α) was 0%, the MBEC [1] was 8000 μg/mL and (42503) μM and the inhibition at 30 pM (IL-17) was 0%. For the same compound, the hBD2 gene expression (DEFB4B (hBD2)) was 1.8 Fold-expression/untreated cells, the hBD3 gene expression (DEFB103 (hBD3)) was 0.9 Fold-expression/untreated cells and the MIC (P. acnes (ATCC 6919) [2]) was 1000 µg/mL (≈ 5.31 mM). The inhibition at 30 pM (IL-1b) was 66%, the “IL-8 Protein % inhibition” value (IL-8 [3]) was 43% and the hCAP18 gene expression (HCAP18) was 1.1 Fold-expression/untreated cells. The MBC (P. acnes (ATCC 6919) [4]) was over 2000 µg/mL.
In the case of O=C(O)c1ccccc1O [Salicylic Acid, reference compound], the TNFa-Protein % inhibition (TNF-α) is reported as 0%, the MBEC [1] is reported as >8000 μg/mL and (>57920) μM and the inhibition at 30 pM (IL-17) is reported as 0%. For the same compound, the hBD2 gene expression (DEFB4B (hBD2)) was 1.0 Fold-expression/untreated cells, the hBD3 gene expression (DEFB103 (hBD3)) was 1.2 Fold-expression/untreated cells and the MIC (P. acnes (ATCC 6919) [2]) was 1000 µg/mL (≈ 7.24 mM). The inhibition at 30 pM (IL-1b) was 40%, the “IL-8 Protein % inhibition” value (IL-8 [3]) was 0% and the hCAP18 gene expression (HCAP18) was 1.2 Fold-expression/untreated cells. The MBC (P. acnes (ATCC 6919) [4]) was 2000 µg/mL (≈ 14.5 mM) and the IC50 (IL-8 [5]) was over 1 µM.
O=C(OOC(=O)c1ccccc1)c1ccccc1 [Benzoyl Peroxide, reference compound] was tested, and the TNFa-Protein % inhibition (TNF-α) was 0%, the MBEC [1] was 367 μg/mL and (1515) μM and the inhibition at 30 pM (IL-17) was 15%. For the same compound, the hBD2 gene expression (DEFB4B (hBD2)) was 1.6 Fold-expression/untreated cells, the hBD3 gene expression (DEFB103 (hBD3)) was 1.2 Fold-expression/untreated cells and the MIC (P. acnes (ATCC 6919) [2]) was 200 µg/mL (≈ 0.826 mM). For the same compound, the inhibition at 30 pM (IL-1b) was 33%, the “IL-8 Protein % inhibition” value (IL-8 [3]) was 78% and the “Investigator Global Assesment (IGA) Scale” value ([6]; 2 week) was 2. For the same compound, the “Investigator Global Assesment (IGA) Scale” value ([6]; 4 week) was 1, the “Investigator Global Assesment (IGA) Scale” value ([6]; 8 week) was 1 and the “Investigator Global Assesment (IGA) Scale” value ([6]; Baseline) was 3. The hCAP18 gene expression (HCAP18) was 2.8 Fold-expression/untreated cells, the MBC (P. acnes (ATCC 6919) [4]) was over 200 µg/mL and the IC50 (IL-8 [5]) was over 1 µM.
In the case of C=CC[C@@H]1/C=C(\C)C[C@H](C)C[C@H](OC)[C@H]2O[C@@](O)(C(=O)C(=O)N3CCCC[C@H]3C(=O)O[C@H](/C(C)=C/[C@@H]3CC[C@@H](O)[C@H](OC)C3)[C@H](C)[C@@H](O)CC1=O)[C@H](C)C[C@@H]2OC [FK506, reference compound], the IC50 (IL-31) is reported as 0.0004 µM, the IC50 (IL-8 [7]) is reported as 0.01 µM and the IC50 (IL-13) is reported as 0.6 µM. The MPO (% inhibition) (Swiss Webster (ICR) mice) was 81%, the Edema (% inhibition) (Swiss Webster (ICR) mice; ear thickness) was 0% and the inhibition in vivo at 1 % (Balb/C mice) was 32%.

— patent US11802107B2, “Compounds and methods of use” (Signum Biosciences, Inc., priority 2017, dated 2023)
